In patent publication US7507739B2, “6-[(substituted)phenyl]triazolopyrimidines as anticancer agents” (Wyeth, priority 2003, dated 2009):
Marks after values point to notes of the source that are not given here.

Columns and labels:
COLO 205 cells = experiment: MTS cytotoxicity test with COLO 205 cells; type: cell-based, human; details: 3 days
In short: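 COLO 205 human colon carcinoma cells, 1000 per well, exposed 3 days at 37° C to nine 2-fold dilutions, typical final top concentration 5 μM. MTS absorbance normalized to time-0 plate; IC50 is concentration giving colour yield midway between untreated and fully killed controls.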

[1] = test system: H157 Human Non-Small Cell Lung Carcinoma; experiment: Human tumor xenograft test, H157; type: in vivo, athymic mice; details: for T/C on day 0 / T/C on day 2 / T/C on day 5 / T/C on day 8 / T/C on day 12 / T/C on day 15: days 0, 7
Description: The ability of compounds of this invention to inhibit tumor growth in animals is studied in the athymic mouse xenograft standard pharmacological test. Female nu/nu mice in an outbred albino background are obtained from Charles River Laboratories (Wilmington, Mass.). Animals are injected subcutaneously on the flank with the desired tumor cell suspension. Several days later, mice with tumors of approximately 150 mm^3 are selected from those injected (staged) and randomly distributed into groups of 5-10. The day of staging is called day 0. Compounds of the invention, usually formulated in saline (exceptions are noted in tables), are administered to animals by intravenous injection or oral gavage on various schedules starting on day 0 or 1, as noted in the tables. The control group in each experiment is dosed with vehicle on the same schedule. Tumor size is measured every 3-7 days with calipers in two orthogonal dimensions, and tumor volume is calculated from the formula volume=[(length×width^2)/2].
Tumor/Control (T/C) is obtained by dividing the mean tumor volume of the treated group by the mean tumor volume of the control group on each measurement day. A treatment dose is defined as active if it produced a statistically significant T/C of 0.50 or less. A p value≦0.05, determined by one-side Student's t-test, is required for statistical significance. A treatment dose is defined as toxic if more than 10% of the animals died from a compound-related toxicity.

[2] = Water uptake and hydrate stability at relative humidity; type: physicochemical; details: room temperature; for water absorbed: 80-100% relative humidity, about 24 h, forms dihydrate; for stability of dihydrate: 5-100% relative humidity
Description: To a slurry of 5-chloro-6-{2,6-difluoro-4-[3-(methylamino)propoxy]phenyl}-N-[(1S)-2,2,2-trifluoro-1-methylethyl][1,2,4]triazolo[1,5-a]pyrimidin-7-amine hydrochloride (7.50 g, 15.0 mmol) and water (100 mL) is added sodium hydroxide solution (10 N, 2.0 mL, 20 mmol) dropwise. Then, fumaric acid (3.48 g, 30 mmol) is added. The mixture is stirred for about 15-20 min and then heated to about 65-75° C. and stirred until all of the solid dissolves. The solution is filtered and the filtrate is cooled to about 0-5° C. over about 1 h. The mixture is stirred for 1 h and then filtered and the collected solid washed with cold water and isopropanol. The solid is dried under vacuum at about 60° C./10 mmHg for about 20 h to give a white solid (6.54 g, 75%) in anhydrous form. A portion of the compound is placed in a drying dish at 80-100% relative humidity (RH) and room temperature for about 24 h.
A mixture of 5-chloro-6-{2,6-difluoro-4-[3-(methylamino)propoxy]phenyl}-N-[(1S)-2,2,2-trifluoro-1-methylethyl][1,2,4]triazolo[1,5-a]pyrimidin-7-amine (9.00 g, 19.4 mmol) and succinic acid (2.75 g, 23.3 mmol) in water (90 mL) is stirred for about 15-20 min and then heated to about 65-75° C. The solution is filtered and the filtrate is cooled to about 0-5° C. over about 1 h. The mixture is stirred for about 1 h and then filtered and the collected solid washed with cold water (2×9 mL) and cold isopropanol (9 mL). The solid is dried under vacuum at about 40° C./10 mmHg for about 20 h to give a white solid in anhydrous form (6.6 g, 73%). A portion of the compound is placed in a drying dish at 80-100% relative humidity (RH) and room temperature for about 24 h.

MAP-rich tubulin = experiment: Tubulin polymerization test with MAP-rich tubulin; type: biochemical, bovine; details: 0.3 μM compound, 20 min, fold enhancement over control
Description: (§1) Medium is RPMI-1640 with L-glutamine, supplemented with 10% heat-inactivated fetal calf serum, 100 units/ml penicillin, and 100 μg/ml streptomycin (Gibco, Grand Island, N.Y.). Microtubule-associated protein (MAP)-rich tubulin, containing about 70% tubulin and 30% MAPs (#ML113), and highly purified tubulin (>99% pure, #TL238), both from bovine brain, are obtained from Cytoskeleton, Inc., Denver, Colo. PEM buffer (80 mM piperazine-N,N′-bis[2-ethanesulfonic acid], pH 6.9, 1 mM ethylene glycol-bis(β-aminoethyl ether)-N,N,N′,N′-tetraacetic acid, 1 mM magnesium chloride) and guanosine 5′-triphosphate (GTP) are also obtained from Cytoskeleton. [3H]paclitaxel, specific activity 14.7 Ci/mmol, is purchased from Moravek Biochemicals (Brea, Calif.). [^3H]vinblastine, specific activity 9.60 Ci/mmol and MicroSpin G-50 columns are obtained from Amersham Biosciences (Piscataway, N.J.). […] Other reagents are obtained from Sigma (St. Louis, Mo.).
(§2) Two variations of this procedure are done, one using MAP-rich tubulin and one using pure tubulin.
MAP-rich tubulin is dissolved in ice-cold PEM buffer containing 1 mM GTP (GPEM buffer) at a concentration of 1.3 mg/mL. The solution is centrifuged at top speed in an Eppendorf model 5415C microcentrifuge (Brinkmann Instruments, Westbury, N.Y.) for 10 min at […] immediately before use. The tubulin solution is added to wells of a ½-area 96-well plate (Costar No. 3696, Corning, Inc., Corning, N.Y.) already containing the compounds of interest. Each compound is tested in duplicate at a final concentration of 0.3 μM in a volume of 110 μL per well. The final DMSO concentration in all wells is 0.3%. Control reactions, which received compound solvent only, are done in quadruplicate. The plate is put in a SpectraMax Plus plate reader (Molecular Devices Corp. Sunnyvale, Calif.) thermostated at 24° and the absorbance of each well at 340 nm, a measure of the appearance of turbidity due to tubulin polymer formation, is determined every minute for 60 minutes. The absorbance at time 0 for each well is subtracted from each of the subsequent absorbance readings for that well, and then the duplicates are averaged.
In this assay, control reactions with MAP-rich tubulin show an S-shaped absorbance profile characterized by three phases: first, a lag phase during which no change in absorbance occurs; second, a polymerization phase in which absorbance increases; and third, a plateau phase in which absorbance has reached a maximum and little or no further change occurs. Polymerization enhancers such as paclitaxel and docetaxel shorten or eliminate the lag phase, increase the rate of the polymerization phase, and often increase the height of the plateau. […] The compounds of this invention have a taxane-like effect on the polymerization reaction. This has been expressed quantitatively in Table 5 by dividing the mean A340 of each sample at 20 min by the mean A340 of the control at 20 min to give a fold enhancement over control. […] Examples of this invention have factors ranging up to 8.1, with the majority in the 5 to 6-fold range.

pure tubulin = experiment: Tubulin polymerization test with pure tubulin without GTP; type: biochemical, bovine; details: no GTP
Description: as §1, §2
The procedure with pure tubulin is similar except for the following changes. […] The supernatant after centrifugation is dispensed to a 96-well plate already containing compounds. Each compound is tested in duplicate at six serial 3-fold dilutions starting at 24.3 μM. The plate reader is thermostated at 35°.

tubulin heterodimer [3] = experiment: Competitive binding test, [3H]vinblastine; design: species or system bovine; details: [3H]vinblastine 100 nM
Description: as §1
(§3) The binding of examples of this invention to highly purified tubulin is studied by competitive inhibition methods. […] To study possible competition at the taxane site, on the other hand, polymerized tubulin (microtubules) is used because paclitaxel binds preferentially to microtubules.
(§4) Highly purified tubulin is dissolved in PEM buffer without GTP and used at a final concentration of 1.0 to 1.3 mg/ml (10 to 13 μM). […] These solutions are incubated at 24° for 1 hr and then applied to MicroSpin G-50 columns which are centrifuged for 2 min at 3000 rpm in an Eppendorf 5415C microfuge. An aliquot of each column effluent (containing tubulin and bound radioligand) is mixed with scintillation fluid and counted in a liquid scintillation spectrometer. […] The ability of the competitor to inhibit the binding of the radioligand is expressed as a percentage of control binding in the absence of any competitor.

tubulin heterodimer [4] = experiment: Competitive binding test, [3H]colchicine; design: species or system bovine; details: [3H]colchicine 50 nM
Description: as §1, §3, §4

microtubules = experiment: Competitive binding test, [3H]paclitaxel; design: species or system bovine; details: [3H]paclitaxel 2.1 μM, competitor 20 μM (5 μM for unlabeled paclitaxel)
Description: as §1, §3
For competition with [^3H]paclitaxel, highly purified tubulin is dissolved in PEM buffer containing 0.75 M glutamate and 25 μM dideoxy-GTP; final protein concentration is 0.25 to 0.35 mg/mL (2.5 to 3.5 μM). These conditions foster the rapid formation of short, stable microtubule polymers (Hamel, E., del Campo, A. A., and Lin, C. M. Stability of tubulin polymers formed with dideoxyguanosine nucleotides in the presence and absence of microtubule-associated proteins. J. Biol. Chem., 259: 2501-2508, 1984). This solution is incubated for 30 min at 37° to allow microtubules to form. Then [^3H]paclitaxel (final concentration of 2.1 μM, 1.2 Ci/mmol) and competitor (final concentration of 20 μM, except 5 μM for unlabeled paclitaxel) are added to aliquots of the polymerized tubulin solution and incubation at 37° is continued for another 30 min. […] The reactions are then centrifuged at top speed in an Eppendorf 5415C microfuge for 20 min at room temperature in order to pellet the microtubule protein. Triplicate aliquots of each supernatant are mixed with scintillation fluid and counted in a liquid scintillation spectrometer. From the amount of radioactivity in the supernatants and the measured total starting radioactivity, the amount of [^3H]paclitaxel bound to pelleted microtubule protein is calculated. The ability of each competitor to inhibit radioligand binding to pelleted protein is expressed as a percent of controls without any competitor.

In the case of `CNCCCOc1cc(F)c(-c2c(Cl)nc3ncnn3c2N[C@@H](C)C(F)(F)F)c(F)c1.O=C(O)CCC(=O)O` [Example 2c, 5-Chloro-6-{2,6-difluoro-4-[3-(methylamino)propoxy]phenyl}-N-[(1S)-2,2,2-trifluoro-1-methylethyl][1,2,4]triazolo[1,5-a]pyrimidin-7-amine Succinate Salt], the IC50 (COLO 205 cells; Succinate Salt) is reported as 38 nM, the “T/C on day 0” value ([1]; H157, 10 mg/kg IV) is reported as 1.07 and the “T/C on day 2” value ([1]; H157, 10 mg/kg IV) is reported as 1.09. The “T/C on day 5” value ([1]; H157, 10 mg/kg IV) was 1.00, the “T/C on day 8” value ([1]; H157, 10 mg/kg IV) was 0.96 and the “T/C on day 12” value ([1]; H157, 10 mg/kg IV) was 0.49*. The “T/C on day 15” value ([1]; H157, 10 mg/kg IV) was 0.38*, the “T/C on day 0” value ([1]; H157, 20 mg/kg IV) was 0.98 and the “T/C on day 2” value ([1]; H157, 20 mg/kg IV) was 0.96. The “T/C on day 5” value ([1]; H157, 20 mg/kg IV) was 0.50**, the “T/C on day 8” value ([1]; H157, 20 mg/kg IV) was 0.51* and the “T/C on day 12” value ([1]; H157, 20 mg/kg IV) was 0.44*. The “T/C on day 15” value ([1]; H157, 20 mg/kg IV) was 0.24**, the “tumor growth inhibition (activity call)” value ([1]; H157 NSCLC, 20 and 10 mg/kg intravenously on days 0 and 7) was “active” and the water absorbed [2] was 5.8%. For the same molecule, the stability of dihydrate [2] was “stable at room temperature and at 5-100% relative humidity”.
With `C[C@H](Nc1c(-c2c(F)cc(OCCCN3CCOCC3)cc2F)c(Cl)nc2ncnn12)C(F)(F)F.Cl` [Example 11a, 5-Chloro-6-[2,6-difluoro-4-(3-morpholin-4-ylpropoxy)phenyl]-N-[(1S)-2,2,2-trifluoro-1-methylethyl][1,2,4]triazolo[1,5-a]pyrimidin-7-amine Hydrogen chloride] the IC50 (COLO 205 cells) was 51 nM, the “A340 Compound/A340 Control” value (MAP-rich tubulin) was 6.8 and the “absorbance increase, polymerization of pure tubulin” value (shortened to “absorbance increase, polymerization”) (pure tubulin; 2.7 μM) was “no effect”. The “absorbance increase, polymerization” value (pure tubulin; 8.1 μM) was “lower and less rapid increase”, the “A340 at 0 min” value (pure tubulin; 24.3 μM) was 0 and the “A340 at 5 min” value (pure tubulin; 24.3 μM) was 0.24. For the same molecule, the “A340 at 10 min” value (pure tubulin; 24.3 μM) was 0.24, the “A340 at 15 min” value (pure tubulin; 24.3 μM) was 0.23 and the “A340 at 20 min” value (pure tubulin; 24.3 μM) was 0.22. The “absorbance increase, polymerization” value (pure tubulin; 24.3 μM, first 5 min) was “rapid increase in absorbance”, the “[3H]Vinblastine binding, percent of control without competitor, Mean” value (tubulin heterodimer [3]) was 12% and the “[3H]Colchicine binding, percent of control without competitor, Mean” value (tubulin heterodimer [4]) was 121%. For the same molecule, the “[3H]Paclitaxel binding, percent of control without competitor, Mean” value (microtubules) was 107%.
In the case of `CNCCCOc1cc(F)c(-c2c(Cl)nc3ncnn3c2N[C@@H](C)C(F)(F)F)c(F)c1.O=C(O)/C=C/C(=O)O` [Example 2b, 5-Chloro-6-{2,6-difluoro-4-[3-(methylamino)propoxy]phenyl}-N-[(1S)-2,2,2-trifluoro-1-methylethyl][1,2,4]triazolo[1,5-a]pyrimidin-7-amine Fumarate Salt], the water absorbed [2] is reported as 5.8% and the stability of dihydrate [2] is reported as “stable at room temperature and at 5-100% relative humidity”.
